From patent US8637550B2, “Heteroaryl diamide compounds useful as MMP-13 inhibitors” (Boehringer Ingelheim International GmbH, priority 2008, dated 2014)
Values joined by “and” are separate entries in the source; they are usually repeats but may differ in a detail not shown here. Identical values can stand only once.

biological target: MMP-13 (Homo sapiens, UniProt P45452); test: EnzoLyte 520 Generic MMP Assay Kit, 5-FAM/QXL520 FRET peptide substrate; format: biochemical
Description: The EnzoLyte™ 520 Generic MMP Assay Kit (AnaSpec Inc.) can detect the activity of several MMPs including MMP-1, 2, 3, 7, 8, 9, 13, and 14. This kit uses a 5-FAM/QXL™520 fluorescence resonance energy transfer (FRET) peptide as an MMP substrate.

| IC50 | Compound |
| --- | --- |
| 18 nM | CNC(=O)[C@@H](NC(=O)c1ccc(-c2ccc(OCc3cncn3C)cn2)o1)C1CCCCC1 [N-[(1S)-1-cyclohexyl-2-(methylamino)-2-oxoethyl]-5-{5-[(1-methyl-1H-imidazol-5-yl)methoxy]pyridin-2-yl}furan-2-carboxamide] |
| 25 nM | CNC(=O)[C@@H](NC(=O)c1ccc(-c2ccc(OCc3ccn(C)n3)cn2)o1)C1CCCCC1 [N-[(1S)-1-cyclohexyl-2-(methylamino)-2-oxoethyl]-5-{5-[(1-methyl-1H-pyrazol-3-yl)methoxy]pyridin-2-yl}furan-2-carboxamide] |
| 6 nM | CNC(=O)[C@@H](NC(=O)c1ccc(-c2ccc(OCc3ccnn3C)cn2)o1)C1CCCCC1 [N-[(1S)-1-cyclohexyl-2-(methylamino)-2-oxoethyl]-5-{5-[(1-methyl-1H-pyrazol-5-yl)methoxy]pyridin-2-yl}furan-2-carboxamide] |
| 3 nM | CNC(=O)[C@@H](NC(=O)c1ccc(-c2ccc(O[C@H](C)c3ccncc3)cn2)o1)C1CCCCC1 [N-[(1S)-1-cyclohexyl-2-(methylamino)-2-oxoethyl]-5-{5-[(1R)-1-(pyridin-4-yl)ethoxy]pyridin-2-yl}furan-2-carboxamide] |
| 41 nM and 73 nM | CNC(=O)[C@@H](NC(=O)c1ccc(-c2ccc(O[C@H](C)c3ccccc3)cn2)o1)C1CCCCC1 [N-[(1S)-1-cyclohexyl-2-(methylamino)-2-oxoethyl]-5-{5-[(1R)-1-phenylethoxy]pyridin-2-yl}furan-2-carboxamide] |
| 295 nM | CNC(=O)[C@@H](NC(=O)c1ccc(-c2ccc(O[C@@H](C)c3ccccc3)cn2)o1)C1CCCCC1 [N-[(1S)-1-cyclohexyl-2-(methylamino)-2-oxoethyl]-5-{5-[(1S)-1-phenylethoxy]pyridin-2-yl}furan-2-carboxamide] |
| 2 nM | CNC(=O)[C@@H](NC(=O)c1ccc(-c2ccc(OCc3cc(C)nc(C)c3)cn2)o1)C1CCCCC1 [N-[(1S)-1-cyclohexyl-2-(methylamino)-2-oxoethyl]-5-{5-[(2,6-dimethylpyridin-4-yl)methoxy]pyridin-2-yl}furan-2-carboxamide] |
| 1 nM | CNC(=O)[C@@H](NC(=O)c1ccc(-c2ccc(OCc3ccnc(C)c3)cn2)o1)C1CCCCC1 [N-[(1S)-1-cyclohexyl-2-(methylamino)-2-oxoethyl]-5-{5-[(2-methylpyridin-4-yl)methoxy]pyridin-2-yl}furan-2-carboxamide] |
| 115 nM | CNC(=O)[C@@H](NC(=O)c1ccc(-c2ccc(OCc3cc(C)cc(C)c3)cn2)o1)C1CCCCC1 [N-[(1S)-1-cyclohexyl-2-(methylamino)-2-oxoethyl]-5-{5-[(3,5-dimethylbenzyl)oxy]pyridin-2-yl}furan-2-carboxamide] |
| 36 nM | CNC(=O)[C@@H](NC(=O)c1ccc(-c2ccc(OCc3cccc(C)c3)cn2)o1)C1CCCCC1 [N-[(1S)-1-cyclohexyl-2-(methylamino)-2-oxoethyl]-5-{5-[(3-methylbenzyl)oxy]pyridin-2-yl}furan-2-carboxamide] |
| 3 nM | CNC(=O)[C@@H](NC(=O)c1ccc(-c2ccc(OCc3ccncc3C)cn2)o1)C1CCCCC1 [N-[(1S)-1-cyclohexyl-2-(methylamino)-2-oxoethyl]-5-{5-[(3-methylpyridin-4-yl)methoxy]pyridin-2-yl}furan-2-carboxamide] |
| 8 nM | CNC(=O)[C@@H](NC(=O)c1ccc(-c2ccc(OCc3cc(C)ccn3)cn2)o1)C1CCCCC1 [N-[(1S)-1-cyclohexyl-2-(methylamino)-2-oxoethyl]-5-{5-[(4-methylpyridin-2-yl)methoxy]pyridin-2-yl}furan-2-carboxamide] |
| 163 nM | CNC(=O)[C@@H](NC(=O)c1ccc(-c2ccc(OCc3cn(C)cn3)cn2)o1)C1CCNCC1 [N-[(1S)-2-(methylamino)-2-oxo-1-(piperidin-4-yl)ethyl]-5-{5-[(1-methyl-1H-imidazol-4-yl)methoxy]pyridin-2-yl}furan-2-carboxamide] |
| 325 nM | NC(=O)COCCNC(=O)[C@@H](NC(=O)c1ccc(-c2ccc(Cl)cc2)o1)C1CCCCC1 [N-[(1S)-2-{[2-(2-amino-2-oxoethoxy)ethyl]amino}-1-cyclohexyl-2-oxoethyl]-5-(4-chlorophenyl)furan-2-carboxamide] |
| 355 nM | COCC(C)NC(=O)[C@@H](NC(=O)c1ccc(-c2ccc(NC(=O)c3cc4ccccc4o3)cc2)o1)C1CCCCC1 (stereo partly drawn) [N-{4-[5-({(1S)-1-cyclohexyl-2-[(1-methoxypropan-2-yl)amino]-2-oxoethyl}carbamoyl)furan-2-yl]phenyl}-1-benzofuran-2-carboxamide] |
